Laboratory results reported in paper PMC6934184, “Selective DNA-PKcs inhibition extends the therapeutic index of localized radiotherapy and chemotherapy” (The Journal of Clinical Investigation, 2019).

Target: T1, NUAK1 (ARK5) (Homo sapiens, UniProt O60285)
T1 construct: purchased Thermo Fisher Scientific (Life Technologies) SelectScreen
Assay: SelectScreen Adapta
Format: biochemical
Description: The in vitro kinase selectivity of NU5455 was determined using the SelectScreen Broad Assay Panel (Thermo Fisher Scientific) involving activity and binding assays (Supplemental Table 1). […] Class IA PI3Ks were measured using the p85α subunit.
Kinase [ATP] % Assay Kinase [ATP] % Assay Kinase [ATP] % Assay Kinase [ATP] % Assay […]
SNF1LK2 Km app 26.6 Z MINK1 Km app 4.6 Z NUAK1 (ARK5) Km app 1.2 A AMPK (A2/B2/G2) n/a -2.6 L […]
SGK (SGK1) Km app 8.5 Z MAP4K2 (GCK) Km app 2.7 Z TLK2 n/a -0.3 L STK38 (NDR) n/a -5.9 L
MERTK (cMER) Km app 8.3 Z CDK2/cyclin A Km app 2.7 Z TGFBR1 (ALK5) n/a -0.4 L MATK (HYL) Km app -6.3 Z
FYN Km app 8.3 Z EPHA1 Km app 2.7 Z CLK3 Km app -0.5 Z ABL1 E255K Km app -6.6 Z
TEC n/a 8.1 L CDK2/cyclin E1 n/a 2.7 L MAP3K14 (NIK) n/a -0.5 L STK17A (DRAK1) n/a -6.6 L
KIT V654A n/a 8.1 L TESK2 n/a 2.7 L AKT3 (PKB gamma) Km app -0.5 Z JAK2 JH1 JH2 Km app -6.7 Z
ROS1 Km app 8.0 Z SPHK1 Km app 2.7 A MAP3K9 (MLK1) Km app -0.5 Z PRKACB (PRKAC beta) n/a -6.8 L
FGFR3 K650E Km app 7.9 Z AMPK A2/B1/G1 Km app 2.6 Z IKBKB (IKK beta) Km app -0.6 Z PDGFRA (PDGFR alpha) Km app -6.8 Z
RAF1 (cRAF) Y340D Y341D 100 7.9 Z DYRK3 Km app 2.6 Z CAMK2A (CaMKII alpha) Km app -0.6 Z NEK9 Km app -7.2 Z
PI4KA (PI4K alpha) 10 7.8 A CSNK1D (CK1 delta) Km app 2.6 Z PRKCB1 (PKC beta I) Km app -0.7 Z PDK1 Km app -7.3 Z
HIPK2 Km app 7.8 Z ACVR2A n/a 2.5 L TTK n/a -0.7 L RPS6KB1 (p70S6K) Km app -7.8 Z […]

T1 sequence (O60285 whole entry): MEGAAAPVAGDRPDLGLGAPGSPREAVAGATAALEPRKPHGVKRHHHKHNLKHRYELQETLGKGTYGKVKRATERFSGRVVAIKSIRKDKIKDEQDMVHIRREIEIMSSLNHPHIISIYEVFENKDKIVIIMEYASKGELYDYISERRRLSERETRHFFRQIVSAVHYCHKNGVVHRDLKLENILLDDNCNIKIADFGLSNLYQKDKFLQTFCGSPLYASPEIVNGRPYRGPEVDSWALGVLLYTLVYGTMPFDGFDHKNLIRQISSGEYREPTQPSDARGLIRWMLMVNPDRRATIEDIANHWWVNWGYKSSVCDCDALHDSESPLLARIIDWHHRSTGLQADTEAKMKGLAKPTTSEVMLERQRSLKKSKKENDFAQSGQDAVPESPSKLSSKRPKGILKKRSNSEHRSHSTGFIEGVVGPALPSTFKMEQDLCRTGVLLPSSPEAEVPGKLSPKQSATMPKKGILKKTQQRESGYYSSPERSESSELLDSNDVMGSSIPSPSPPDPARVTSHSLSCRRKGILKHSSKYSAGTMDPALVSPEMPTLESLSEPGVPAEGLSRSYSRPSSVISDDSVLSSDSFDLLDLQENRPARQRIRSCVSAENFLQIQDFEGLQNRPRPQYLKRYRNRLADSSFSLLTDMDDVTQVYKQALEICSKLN

Work on `CN(C(=O)CN1CCOCC1)c1ccc2sc3c(-c4cccc5c(=O)cc(N6CC7CCC(C6)O7)oc45)cccc3c2c1` [NU5455] yielded an inhibition at 1 µM of 1.2%.
